Test results reported in patent US9375006B2, “5- halogenopyrazole benzofuranyl carboxamides” (BAYER CROPSCIENCE AG, priority 2012, dated 2016).

Tests used:
[1] = tested on: Botrytis cinerea; assay: In vivo preventive test on Botrytis cinerea (grey mould), gherkin plants; details: 100 ppm, preventive spray, grading 4 to 5 days after contamination
Description: (§1) The active ingredients tested are prepared by homogenization in a mixture of acetone/tween/DMSO and then diluted with water to obtain the desired active material concentration.
(§2) Gherkin plants (“Vert petit de Paris” variety), sown in starter cups on a 50/50 peat soil-pozzolana substrate and grown at 24° C., are treated at the Z11 cotyledon stage by spraying with the active ingredient prepared as described above. Plants, used as controls, are treated with the mixture of acetone/tween/DMSO/water not containing the active material.
After 24 hours, the plants are contaminated by spraying the cotyledons with an aqueous suspension of cryopreserved Botrytis cinerea spores (50 000 spores per ml). The spores are suspended in a nutrient solution composed of 10 g/L of PDB, 50 g/L of D-Fructose, 2 g/L of NH4NO3 and 1 g/L of KH2PO4. The contaminated gherkin plants are incubated at 17° C. and at 90% relative humidity.
Grading (% of efficacy) is carried out 4 to 5 days after the contamination, in comparison with the control plants.

[2] = tested on: Pyrenophora teres; assay: In vivo preventive test on Pyrenophora teres (net blotch on barley); details: 100 ppm, barley plants, preventive spray, grading 14 days after contamination
Description: Barley plants (“Plaisant” variety), sown in starter cups on a 50/50 peat soil-pozzolana substrate and grown at 22° C., are treated at the 1-leaf stage (10 cm height) by spraying with the active ingredient prepared as described above. Plants, used as controls, are treated with the mixture of acetone/tween/DMSO/water not containing the active material. After 24 hours, the plants are contaminated by spraying the leaves with an aqueous suspension of Pyrenophora teres spores (12 000 spores per ml). The spores are collected from a 12-day-old culture. The contaminated barley plants are incubated for 48 hours at 20° C. and at 100% relative humidity, and then for 12 days at 20° C. at 70-80% relative humidity. Grading (% of efficacy) is carried out 14 days after the contamination, in comparison with the control plants.

[3] = tested on: Puccinia recondita; assay: In vivo preventive test on Puccinia recondita (brown rust on wheat); details: 100 ppm, wheat plants, preventive spray, grading 12 days after contamination
Description: (§3) The active ingredients tested are prepared by homogenization in a mixture of acetone/tween/DMSO, and then diluted with water to obtain the desired active material concentration.
Wheat plants (“Scipion” variety), sown in starter cups on a 50/50 peat soil-pozzolana substrate and grown at 22° C., are treated at the 1-leaf stage (10 cm height) by spraying with the active ingredient prepared as described above. Plants, used as controls, are treated with the mixture of acetone/tween/DMSO/water not containing the active material.
(§4) After 24 hours, the plants are contaminated by spraying the leaves with an aqueous suspension of Puccinia condita spores (100 000 spores per ml). The spores are collected from an infected plant and are suspended in water containing 2.5 ml/l of Tween 80 at 10%. The contaminated wheat plants are incubated for 24 hours at 20° C. and at 100% relative humidity, and then for 10 days at 20° C. and at 70-80% relative humidity.
(§5) Grading (% of efficacy) is carried out 12 days after the contamination, in comparison with the control plants.

[4] = tested on: Sphaerotheca fuliginea; assay: In vivo preventive test on Sphaerotheca fuliginea (powdery mildew on cucurbits); details: 100 ppm, gherkin plants, preventive spray, grading 12 days after contamination
Description: as §1, §2
After 24 hours, the plants are contaminated by spraying the cotyledons with an aqueous suspension of Sphaerotheca fuliginea spores (100 000 spores per ml). The spores are collected from infected plants. The contaminated gherkin plants are incubated at about 20° C. and at 70-80% relative humidity.
as §5

[5] = tested on: Uromyces appendiculatus; assay: In vivo preventive test on Uromyces appendiculatus (bean rust); details: 100 ppm, bean plants, preventive spray, grading 11 days after contamination
Description: as §3
Bean plants (“Saxa” variety), sown in starter cups on a 50/50 peat soil-pozzolana substrate and grown at 24° C., are treated at the 2-leaf stage (9 cm height) by spraying with the active ingredient prepared as described above. Plants, used as controls, are treated with the mixture of acetone/tween/DMSO/water not containing the active material.
as §4, with “of Uromyces appendiculatus” for “of Puccinia condita”, “spores (150” for “spores (100”, “from” for “from an”, “infected plants” for “infected plant”, “contaminated bean” for “contaminated wheat”
Grading (% of efficacy) is carried out 11 days after the contamination, in comparison with the control plants.

[6] = logP by HPLC on reversed phase columns (EEC directive 79/831 Annex V.A8); type: physicochemical; details: method [a]: LC-MS at pH 2.7, 0.1% formic acid in water / acetonitrile; for chromatographic logP: reversed phase HPLC columns
Description: Measurement of log P values was performed according EEC directive 79/831 Annex V.A8 by HPLC (High Performance Liquid Chromatography) on reversed phase columns with the following methods: ^[a] Measurement of LC-MS was done at pH 2.7 with 0.1% formic acid in water and with acetonitrile (contains 0.1% formic acid) as eluent with a linear gradient from 10% acetonitrile to 95% acetonitrile. ^[b] Measurement with LC-MS was done at pH 7.8 with 0.001 molar ammonium hydrogen carbonate solution in water as eluent with a linear gradient from 10% acetonitrile to 95% acetonitrile.

[7] = tested on: Alternaria brassicae; assay: In vivo preventive test on Alternaria brassicae (leaf spot on radish); details: 100 ppm, radish plants, preventive spray, grading 6 days after contamination
Description: Radish plants (“Pernod Clair” variety), sown in starter cups on a 50/50 peat soil-pozzolana substrate and grown at 17° C., are treated at the cotyledon stage by spraying with the active ingredient prepared as described above. Plants, used as controls, are treated with the mixture of acetone/tween/DMSO/water not containing the active material. After 24 hours, the plants are contaminated by spraying the cotyledons with an aqueous suspension of Alternaria brassicae spores (50 000 spores per ml). The spores are collected from a 15-day-old culture. The contaminated radish plants are incubated at 20° C. and at 100% relative humidity. Grading (% of efficacy) is carried out 6 days after the contamination, in comparison with the control plants.

logP [6] | chromatographic logP [6] | Structure (SMILES) | Eff. % [1] | Eff. % [2] | Eff. % [3] | Eff. % [4] | Eff. % [5] | Eff. % [7]
– | – | CCC1OC(C)(C)c2cccc(NC(=O)c3cn(C)nc3C(F)F)c21 (centres unmarked) [Example 16] | 83% | 83% | 98% | 98% | 100% | –
3.33[a] | – | CC(C)C1OC(C)(C)c2cccc(NC(=O)c3c(C(F)F)nn(C)c3Br)c21 (centres unmarked) [Example 17] | – | 83% | 94% | – | 100% | –
3.87[a] | – | CCC1OC(CC)(CC)c2cccc(NC(=O)c3c(C(F)F)nn(C)c3Cl)c21 (centres unmarked) [Example 18] | – | 83% | 98% | 100% | 100% | 75%
3.87[a] | – | CCC1OC(CC)(CC)c2cccc(NC(=O)c3c(C(F)F)nn(C)c3Br)c21 (centres unmarked) [Example 19] | – | – | 98% | 83% | 100% | 75%
2.96[a] | – | CCC1OCc2cccc(NC(=O)c3c(C(F)F)nn(C)c3Br)c21 (centres unmarked) [Example 20] | – | – | 98% | – | 100% | –
2.76[a] | – | CCC1OC(C)(C)c2cccc(NC(=O)c3c(C(F)F)nn(C)c3F)c21 (centres unmarked) [Example 21] | 93% | – | 98% | 98% | 100% | –
– | 3.11 | CC(C)C1OC(C)(C)c2cccc(NC(=O)c3c(C(F)F)nn(C)c3F)c21 (centres unmarked) [Example 22, 3-(difluoromethyl)-5-fluoro-N-(3-isopropyl-1,1-dimethyl-1,3-dihydro-2-benzofuran-4-yl)-1-methyl-1H-pyrazole-4-carboxamide] | 98% | 97% | 98% | 100% | 99% | –
3.26[a] | – | CCC1OC(CC)(CC)c2cccc(NC(=O)c3cn(C)nc3C(F)F)c21 (centres unmarked) [Example 23] | 97% | 92% | 98% | 100% | 100% | 88%
3.65[a] | – | CCC1OC(CC)(CC)c2cccc(NC(=O)c3c(C(F)F)nn(C)c3F)c21 (centres unmarked) [Example 24] | 87% | 83% | 98% | 100% | 100% | 75%
2.76[a] | – | CC(C)C1OC(C)(C)c2cccc(NC(=O)c3cn(C)nc3C(F)F)c21 (centres unmarked) [Example 25] | 98% | 83% | 98% | 100% | 99% | 75%
– | 3.76 | CCC1OC(CC)(CC)c2cccc(NC(=S)c3cn(C)nc3C(F)F)c21 (centres unmarked) [Example 26, 3-(difluoromethyl)-1-methyl-N-(1,1,3-triethyl-1,3-dihydro-2-benzofuran-4-yl)-1H-pyrazole-4-carbothioamide] | – | – | – | – | – | –
